This assay deals with HCV proteins in Rep5.1 cells (replicon cell line). The assay can be described thus: Inhibitory activity of HCV: cell-based ELISA in replicon cell line Rep5.1 (decrease of HCV proteins). Also on record: species or system hepatitis C virus. The following applies: Rep5.1 cells, 72 hours with drug. Summed up:
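Rep5.1 replicon cells (5000/well, DMEM-10 with 500 μg/ml G418) were given serially diluted drug 4 h after seeding. After 72 h, cells were fixed in methanol/acetone and HCV proteins detected by cell-based ELISA using replicon-specific patient plasma antibodies. IC50 is the concentration giving 50% protein decrease versus the no-drug control.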

Where [1] appears, read: Hepatitis C virus, 72 h, concentration at which 50% of HCV proteins was decreased, Table 2, read-out: IC50.
Where [2] appears, read: Hepatitis C virus, 72 h, decrease of HCV proteins measured by HCV antibody, Table 1, read-out: Level (IC50 values classified).

Read-outs that look alike come from different tables or passages of the source. Where only a bound is given, the exact number is not on record here.

Turning to `CC1=C(C(=O)OCc2cccc(C(F)(F)F)c2)CNC(=S)N1` [Compound 101, 6-methyl-2-thioxo-1,2,3,4-tetrahydro-pyrimidine-5-carboxylic acid 3-trifluoromethyl-benzyl ester], the 50% inhibitory concentration (IC50) runs as follows: under setting [1], less than 400 nM; under setting [2], less than 1000 nM.

On to `CCCN(CC)c1ccc(CCOC(=O)C2=C(C)NC(=S)NC2CO)cc1[N+](=O)[O-]` (stereo not shown) [92″, 4-Hydroxymethyl-6-methyl-2-thioxo-1,2,3,4-tetrahydro-pyrimidine-5-carboxylic acid 2-[4-(ethyl-propylamino)-3-nitro-phenyl]-ethyl ester], for which the IC50 by setting is: under setting [1], 400 nM; under setting [2], less than 1000 nM. For `CSc1ccc(COC(=O)C2=C(C)NC(=S)NC2)s1` [Compound 217, 6-methyl-2-thioxo-1,2,3,4-tetrahydro-pyrimidine-5-carboxylic acid 5-methylsulfanyl-thiophen-2-ylmethyl ester], in that order: 7000 nM and 1000 to 10000 nM. For `CC1=C(C(=O)OCCc2cccc(C(F)(F)F)c2)C(COC(=O)C(C)N)NC(=S)N1` (stereo not shown) [73″, 4-(2-amino-propionyloxymethyl)-6-methyl-2-thioxo-1,2,3,4-tetrahydro-pyrimidine-5-carboxylic acid 2-(3-trifluoromethyl-phenyl)-ethyl ester] the same measures were 400 nM and less than 1000 nM. For `CC1=C(C(=O)OCc2ccc3nnn(C)c3c2)CNC(=S)N1` [Compound 242, 6-methyl-2-thioxo-1,2,3,4-tetrahydro-pyrimidine-5-carboxylic acid 3-methyl-3H-benzotriazol-5-ylmethyl ester], in that order: 63000 nM and more than 20000 nM. On to `CC1=C(C(=O)OCCc2cccc([N+](=O)[O-])c2)CNC(=S)N1` [14′, 6-methyl-2-thioxo-1,2,3,4-tetrahydro-pyrimidine-5-carboxylic acid 2-(3-nitro-phenyl)-ethyl ester], for which the IC50 runs as follows: under setting [1], 700 nM; under setting [2], less than 1000 nM. For `CC1=C(C(=O)OCc2cc(C)ccc2C)CNC(=S)N1` [Compound 149, 6-methyl-2-thioxo-1,2,3,4-tetrahydro-pyrimidine-5-carboxylic acid 2,5-dimethyl-benzyl ester], in that order: less than 400 nM and less than 1000 nM.

With `CC1=C(C(=O)OC(C)Cc2ccsc2)CNC(=S)N1` (stereo not shown) [Compound 255, 6-methyl-2-thioxo-1,2,3,4-tetrahydro-pyrimidine-5-carboxylic acid 2-thiophen-3-yl-1-methyl-ethyl ester], the IC50 is 2000 nM under setting [1] and 1000 to 10000 nM under setting [2]. For `CC1=C(C(=O)OCC2CCCC2)CNC(=S)N1` [Compound 68, 6-methyl-2-thioxo-1,2,3,4-tetrahydro-pyrimidine-5-carboxylic acid cyclopentylmethyl ester], in that order: 700 nM and less than 1000 nM.

As for `CC1=C(C(=O)OCCc2ccccc2F)CNC(=S)N1` [Compound 116, 6-methyl-2-thioxo-1,2,3,4-tetrahydro-pyrimidine-5-carboxylic acid 2-(2-fluoro-phenyl)-ethyl ester], the IC50 by setting is: under setting [1], 500 nM; under setting [2], less than 1000 nM. For the compound `CC1=C(C(=O)OCCCCSc2nc3ccccc3s2)C(CO)NC(=S)N1` (stereo not shown) [70″, 4-hydroxymethyl-6-methyl-2-thioxo-1,2,3,4-tetrahydro-pyrimidine-5-carboxylic acid 4-(benzothiazol-2-ylsulfanyl)-butyl ester], the IC50 runs as follows: under setting [1], 400 nM; under setting [2], less than 1000 nM. `CC1=C(C(=O)OCc2ccccn2)CNC(=S)N1` [Compound 154, 6-methyl-2-thioxo-1,2,3,4-tetrahydro-pyrimidine-5-carboxylic acid pyridin-2-ylmethyl ester]: the IC50 reads like this: under setting [1], more than 100000 nM; under setting [2], more than 20000 nM. For `CC1=C(C(=O)OCCc2cc(F)cc(F)c2)C(CO)NC(=S)N1` (stereo not shown) [57″, 4-hydroxymethyl-6-methyl-2-thioxo-1,2,3,4-tetrahydro-pyrimidine-5-carboxylic acid 2-(3,5-difluoro-phenyl)-ethyl ester], in that order: 6400 nM and 1000 to 10000 nM. For `CC1=C(C(=O)OCc2ccc(OC(=O)OC(C)(C)C)cc2)CNC(=S)N1` [Compound 228, 6-methyl-2-thioxo-1,2,3,4-tetrahydro-pyrimidine-5-carboxylic acid 4-t-butoxycarbonyloxy-benzyl ester], in that order: 23000 nM and 10000 to 20000 nM. With `CC1=C(C(=O)OC(c2ccccc2)c2ccccc2C)CNC(=S)N1` (stereo not shown) [Compound 57, 6-methyl-2-thioxo-1,2,3,4-tetrahydro-pyrimidine-5-carboxylic acid phenyl-o-tolyl-methyl ester], the IC50 was 3500 nM under setting [1] and 1000 to 10000 nM under setting [2].

`CC1=C(C(=O)OCCc2ccsc2)C2(CC2)NC(=S)N1` [13′, 7-methyl-5-thioxo-4,6-diaza-spiro[2.5]oct-7-ene-8-airboxylic acid 2-thiophen-3-yl-ethyl ester]: the IC50 (concentration at which 50% of HCV proteins was decreased, Table 2, read-out: IC50) turned out to be 79000 nM. Turning to `C=CCOC(=O)C1=C(C)NC(=S)NC1` [Compound 16, 6-methyl-2-thioxo-1,2,3,4-tetrahydro-pyrimidine-5-carboxylic acid allyl ester], the IC50 is 74000 nM under setting [1] and more than 20000 nM under setting [2].

With `O=C(O)CCCC1=C(C(=O)OCc2ccccc2)CNC(=S)N1` [Compound 170, 6-(3-carboxy-propyl)-2-thioxo-1,2,3,4-tetrahydro-pyrimidine-5-carboxylic acid benzyl ester], the IC50 under setting [1] was 90000 nM and the IC50 under setting [2] was more than 20000 nM. For `CC1=C(C(=O)OCCc2cc(C)cc(C)c2)C(CO)NC(=S)N1` (stereo not shown) [37″, 4-hydroxymethyl-6-methyl-2-thioxo-1,2,3,4-tetrahydro-pyrimidine-5-carboxylic acid 2-(3,5-dimethyl-phenyl)-ethyl ester] the same measures were 800 nM and less than 1000 nM. For `CC1=C(C(=O)OCCc2ccc(C)c(F)c2)C(CO)NC(=S)N1` (stereo not shown) [55″, 4-hydroxymethyl-6-methyl-2-thioxo-1,2,3,4-tetrahydro-pyrimidine-5-carboxylic acid 2-(3-fluoro-4-methyl-phenyl)-ethyl ester], in that order: 500 nM and less than 1000 nM.

Turning to `CC1=C(C(=O)OCCc2csc([N+](=O)[O-])c2)C(CF)NC(=S)N1` (stereo not shown) [28′, 4-fluoromethyl-6-methyl-2-thioxo-1,2,3,4-tetrahydro-pyrimidine-5-carboxylic acid 2-(5-nitro-thiophen-3-yl)-ethyl ester], the IC50 under setting [1] came to 72000 nM and the 50% inhibitory concentration (IC50) under setting [2] is more than 20000 nM. For `CC1=C(C(=O)OCc2cc(F)c(F)c(F)c2)C(CF)NC(=S)N1` (stereo not shown) [91′, 4-fluoromethyl-6-methyl-2-thioxo-1,2,3,4-tetrahydro-pyrimidine-5-carboxylic acid 3,4,5-trifluoro-benzyl ester] the same measures were 1600 nM and 1000 to 10000 nM. For `CC1=C(C(=O)OCCCCCCCCCC(=O)O)CNC(=S)N1` [20′, 6-methyl-2-thioxo-1,2,3,4-tetrahydro-pyrimidine-5-carboxylic acid 9-carboxy-nonyl ester] the same measures were 27000 nM and more than 20000 nM.

For the compound `CC1=C(C(=O)OCc2cc(F)cc(F)c2)CNC(=S)N1` [Compound 134, 6-methyl-2-thioxo-1,2,3,4-tetrahydro-pyrimidine-5-carboxylic acid 3,5-difluoro-benzyl ester], the 50% inhibitory concentration (IC50) under setting [1] amounted to 600 nM and the IC50 under setting [2] was less than 1000 nM. Consider `COc1ccc(CSC(=O)C2=C(C)NC(=S)NC2)cc1` [Compound 121, 6-methyl-2-thioxo-1,2,3,4-tetrahydro-pyrimidine-5-carbothioic acid S-(4-methoxy-benzyl)ester], for which the IC50 runs as follows: under setting [1], 500 nM; under setting [2], less than 1000 nM. For `CC1=C(C(=O)OCc2ccc(Cl)cc2Cl)CNC(=S)N1` [Compound 41, 6-methyl-2-thioxo-1,2,3,4-tetrahydro-pyrimidine-5-carboxylic acid 2,4-dichloro-benzyl ester] the same measures were less than 400 nM and less than 1000 nM. For `C=C(Br)CCOC(=O)C1=C(C)NC(=S)NC1` [Compound 99, 6-methyl-2-thioxo-1,2,3,4-tetrahydro-pyrimidine-5-carboxylic acid 3-bromo-but-3-enyl ester] the same measures were 1800 nM and 1000 to 10000 nM. For `CC1=C(C(=O)OCCc2ccc(Cl)c(C(F)(F)F)c2)C(CO)NC(=S)N1` (stereo not shown) [67″, 4-hydroxymethyl-6-methyl-2-thioxo-1,2,3,4-tetrahydro-pyrimidine-5-carboxylic acid 2-(4-chloro-3-trifluoromethyl-phenyl)-ethyl ester], in that order: less than 400 nM and less than 1000 nM.

Consider `CC1=C(C(=O)OCCCCCC(=O)O)CNC(=S)N1` [18′, 6-methyl-2-thioxo-1,2,3,4-tetrahydro-pyrimidine-5-carboxylic acid 5-carboxy-pentyl ester], for which the IC50 was more than 100000 nM under setting [1] and more than 20000 nM under setting [2].

Regarding `COc1ccc(COC(=O)C2=C(C)NC(=S)NC2)c(C)c1C` [Compound 138, 6-methyl-2-thioxo-1,2,3,4-tetrahydro-pyrimidine-5-carboxylic acid 4-methoxy-2,3-dimethyl-benzyl ester], the IC50 is 20000 nM under setting [1] and 10000 to 20000 nM under setting [2]. For `CC1=C(C(=O)OCc2cc(F)cc(F)c2)C(CF)NC(=S)N1` (stereo not shown) [69′, 4-fluoromethyl-6-methyl-2-thioxo-1,2,3,4-tetrahydro-pyrimidine-5-carboxylic acid 3,5-difluoro-benzyl ester], in that order: 3000 nM and 1000 to 10000 nM.

For the origin of these results see patent publication US20060116390A1, “Hepatitis c virus inhibitors” (priority 2003, published 2006).
